The assay addresses transferrin receptor (hTfR) (Homo sapiens, UniProt P02786). As to the kind of experiment: Intermolecular interaction evaluation test between transferrin receptor (hTfR) and peptide by surface plasmon resonance (SPR). Type of assay: binding. The essentials: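 hTfR captured on Ni-NTA chip then amine-coupled; peptides run single-cycle kinetics at 5–100 nM in 10 mM HEPES pH 8.0, 150 mM NaCl, 0.05% Tween 20, 0.1% BSA, 1.0% DMSO. KD from least-squares curve fitting of sensorgrams.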
For orientation: SPR reads the build-up and loss of mass on a sensor chip optically.

Where [1] appears, read: surface plasmon resonance, hTfR, read-out: KD value for hTfR by SPR (class symbol).
Where [2] appears, read: binding to hTfR by SPR, Table 2 peptides, read-out: KD value (SPR) class.
The mark [3] stands for this setting: surface plasmon resonance, peptide vs hTfR, read-out: KD value, hTfR binding by SPR (class symbol).

Where two headings read alike, the source gives them in different places. Where a SMILES comes first, the peptide text is derived from it. Bridges are numbered along the chain shown (N, C = ends). [ ]: non-standard residue; d: D form. The star is where a group is joined. X2 = O=C(O)c1cc(C(=O)*)ccc1-c1c2ccc(=O)cc-2oc2cc(O)ccc12; PEG12 = NCCOCCOCCOCCOCCOCCOCCOCCOCCOCCOCCOCCOCCC(=O)O; NMePhe(3-Cl) = CN[C@@H](Cc1cccc(Cl)c1)C(=O)O; NMeW = CN[C@@H](Cc1c[nH]c2ccccc12)C(=O)O; NMeY = CN[C@@H](Cc1ccc(O)cc1)C(=O)O; NMeF = CN[C@@H](Cc1ccccc1)C(=O)O; Ahp(2) = CCCCC[C@H](N)C(=O)O; X1 = CN[C@H](CCCCN*)C(=O)O

Chain of transferrin receptor (hTfR) (P02786 whole entry): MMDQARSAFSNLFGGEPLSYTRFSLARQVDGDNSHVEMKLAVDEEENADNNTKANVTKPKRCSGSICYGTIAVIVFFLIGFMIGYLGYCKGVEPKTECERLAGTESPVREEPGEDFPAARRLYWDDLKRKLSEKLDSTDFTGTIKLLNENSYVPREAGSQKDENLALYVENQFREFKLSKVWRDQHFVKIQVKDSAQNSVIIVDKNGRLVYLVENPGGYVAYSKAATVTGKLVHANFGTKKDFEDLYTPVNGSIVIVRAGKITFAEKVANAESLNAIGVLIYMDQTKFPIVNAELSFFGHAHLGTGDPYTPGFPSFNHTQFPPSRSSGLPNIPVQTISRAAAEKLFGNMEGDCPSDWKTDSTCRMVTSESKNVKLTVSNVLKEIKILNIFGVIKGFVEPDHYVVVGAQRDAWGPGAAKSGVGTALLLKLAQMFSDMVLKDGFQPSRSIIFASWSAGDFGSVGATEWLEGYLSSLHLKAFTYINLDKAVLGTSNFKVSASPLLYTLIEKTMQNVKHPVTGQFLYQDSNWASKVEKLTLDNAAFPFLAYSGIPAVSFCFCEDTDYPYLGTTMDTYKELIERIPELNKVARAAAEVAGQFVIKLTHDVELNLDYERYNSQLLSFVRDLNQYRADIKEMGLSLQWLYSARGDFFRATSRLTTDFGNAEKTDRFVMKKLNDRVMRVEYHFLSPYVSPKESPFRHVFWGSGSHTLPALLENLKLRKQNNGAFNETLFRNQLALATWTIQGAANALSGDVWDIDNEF

As a reminder, the Kd is the free concentration of one partner at which half of the binding sites on the other are occupied at equilibrium, for simple one-to-one binding. Turning to `CC[C@H](C)[C@@H]1NC(=O)[C@H](Cc2ccc(O)cc2)NC(=O)[C@H](Cc2ccc(O)cc2)NC(=O)[C@H](CC(N)=O)NC(=O)[C@H](Cc2c[nH]c3ccccc23)NC(=O)[C@H](C(C)C)NC(=O)[C@H](Cc2ccccc2)NC(=O)[C@H](C(C)C)NC(=O)[C@H](C)NC(=O)CSC[C@@H](C(=O)NCCOCCOCCOCCOCCOCCOCCOCCOCCOCCOCCOCCOCCC(=O)N[C@@H](CCCCNC(=O)c2ccc(-c3c4ccc(=O)cc-4oc4cc(O)ccc34)c(C(=O)O)c2)C(N)=O)NC(=O)[C@H](CCCNC(=N)N)NC(=O)[C@H](Cc2ccccc2)NC(=O)[C@H](CCCNC(=N)N)NC(=O)[C@H](CC(=O)O)NC(=O)[C@H]([C@@H](C)CC)NC1=O` [compound 148] ({CH2CO}-AVFVWNYYIIDRFRC[PEG12]K(X2)-NH2; thioether N-15), the equilibrium dissociation constant (Kd) (SPR, linker and payload (FITC, VivoTag) conjugates, read-out: KD) fell in the range of 1 to 100 nM.

Take `CCCCC[C@@H]1NC(=O)[C@H](Cc2ccc(O)cc2)NC(=O)[C@H](CC(N)=O)NC(=O)[C@H](Cc2c[nH]c3ccccc23)NC(=O)[C@H](C(C)C)NC(=O)[C@H](Cc2ccccc2)N(C)C(=O)[C@H](C(C)C)NC(=O)[C@H](C)NC(=O)CSC[C@@H](C(=O)NCCOCCOCCOCCOCCOCCOCCOCCOCCOCCOCCOCCOCCC(N)=O)NC(=O)[C@H](Cc2ccc(O)cc2)N(C)C(=O)[C@H](Cc2ccc(O)cc2)NC(=O)[C@H](CCCNC(=N)N)NC(=O)[C@H](CCCNC(=N)N)NC(=O)[C@H]([C@@H](C)CC)NC(=O)[C@H]([C@@H](C)CC)NC1=O` [compound 139] ({CH2CO}-AV[NMeF]VWNY[Ahp(2)]IIRRY[NMeY]C[PEG12]-NH2; thioether N-15): the Kd (SPR, hTfR No. 894 variants with PEG12c linker (Table 2), read-out: KD) lay in the range of 1 to 100 nM.

As to `CC[C@H](C)[C@@H]1NC(=O)[C@H](Cc2ccc(OC)cc2)NC(=O)[C@H](Cc2ccc(O)cc2)NC(=O)[C@H](CC(N)=O)NC(=O)[C@H](Cc2c[nH]c3ccccc23)N(C)C(=O)[C@H](C(C)C)NC(=O)[C@H](Cc2cccc(Cl)c2)N(C)C(=O)[C@H](C(C)C)NC(=O)[C@H](C)NC(=O)CSC[C@@H](C(=O)NCC(=O)N[C@H](CCC(=O)O)C(=O)NCC(=O)N[C@H](CCC(=O)O)C(=O)N[C@@H](CO)C(=O)N[C@@H](CO)C(=O)N[C@@H](CS)C(N)=O)NC(=O)[C@H](Cc2ccc(O)cc2)N(C)C(=O)[C@H](Cc2ccccc2)NC(=O)[C@@H](CCCNC(=N)N)NC(=O)[C@H](CCCNC(=N)N)NC(=O)[C@H]([C@@H](C)CC)NC1=O` [compound 403], the equilibrium dissociation constant (Kd) under setting [1] is 1 to 100 nM.

As for `CC[C@H](C)[C@@H]1NC(=O)[C@H](Cc2ccc(O)cc2)NC(=O)[C@H](Cc2ccc(O)cc2)NC(=O)[C@H](CC(N)=O)NC(=O)[C@H](Cc2c[nH]c3ccccc23)NC(=O)[C@H](C(C)C)NC(=O)[C@H](Cc2ccccc2)NC(=O)[C@H](CCCNC(=N)N)NC(=O)[C@H](C)NC(=O)CSC[C@@H](C(N)=O)NC(=O)[C@H](Cc2ccc(O)cc2)N(C)C(=O)[C@H](Cc2ccc(O)cc2)NC(=O)[C@H](CCCNC(=N)N)NC(=O)[C@H](CCCNC(=N)N)NC(=O)[C@H]([C@@H](C)CC)NC1=O` [compound 237], the Kd under setting [2] is 1 to 100 nM.

As to `CC[C@H](C)[C@@H]1NC(=O)[C@H](Cc2ccc(OC)cc2)NC(=O)[C@H](Cc2ccc(O)cc2)NC(=O)[C@H](CC(N)=O)NC(=O)[C@H](Cc2c[nH]c3ccccc23)N(C)C(=O)[C@H](C(C)C)NC(=O)[C@H](Cc2cccc(Cl)c2)N(C)C(=O)[C@H](C(C)C)NC(=O)[C@H](C)NC(=O)CSC[C@@H](C(=O)NCCOCCOCCOCCOCCC(N)=O)NC(=O)[C@H](Cc2ccc(O)cc2)NC(=O)[C@H](Cc2ccccc2)NC(=O)[C@@H](CCCNC(=N)N)NC(=O)C(C)(C)NC(=O)[C@H]([C@@H](C)CC)NC1=O` [compound 352], the equilibrium dissociation constant (Kd) under setting [1] lay within 1 to 100 nM.

For `CC[C@H](C)[C@@H]1NC(=O)[C@H](Cc2ccc(O)cc2)NC(=O)[C@H](Cc2ccc(O)cc2)NC(=O)[C@H](CC(N)=O)NC(=O)[C@H](Cc2c[nH]c3ccc(Cl)cc23)NC(=O)[C@H](C(C)C)NC(=O)[C@H](Cc2ccccc2)N(C)C(=O)[C@H](C(C)C)NC(=O)[C@H](C)NC(=O)CSC[C@@H](C(N)=O)NC(=O)[C@H](Cc2ccc(O)cc2)N(C)C(=O)[C@H](Cc2ccc(O)cc2)NC(=O)[C@H](CCCNC(=N)N)NC(=O)[C@H](CCCNC(=N)N)NC(=O)[C@H]([C@@H](C)CC)NC1=O` [compound 268], the Kd under setting [2] lay within 1 to 100 nM.

With `CC[C@H](C)[C@@H]1NC(=O)[C@H](Cc2ccc(O)cc2)NC(=O)[C@H](Cc2ccc(O)cc2)NC(=O)[C@H](CC(N)=O)NC(=O)[C@H](Cc2c[nH]c3ccccc23)NC(=O)[C@H](C(C)C)NC(=O)[C@H](Cc2ccccc2)N(C)C(=O)[C@H](C(C)C)NC(=O)[C@H](C)NC(=O)CSC[C@@H](C(=O)NCC(=O)N[C@@H](CCCCNC(=O)C2CCC(CN3C(=O)C=CC3=O)CC2)C(N)=O)NC(=O)[C@H](Cc2ccc(O)cc2)N(C)C(=O)[C@H](Cc2ccc(O)cc2)NC(=O)[C@H](CCCNC(=N)N)NC(=O)[C@H](CCCNC(=N)N)NC(=O)[C@H]([C@@H](C)CC)NC1=O` (some centres unmarked) [compound 188], the dissociation constant Kd (hTfR binding by SPR, hTfR No. 894 variant peptides, linker-added peptides and payload conjugates (Table 2), read-out: KD value obtained from the SPR measurement) was 1 to 100 nM.

Turning to `CC[C@H](C)[C@@H]1NC(=O)[C@H](Cc2ccc(OC)cc2)NC(=O)[C@H](Cc2ccc(O)cc2)NC(=O)[C@H](CC(N)=O)NC(=O)[C@H](Cc2c[nH]c3ccccc23)N(C)C(=O)[C@H](C(C)C)NC(=O)[C@H](Cc2cccc(Cl)c2)N(C)C(=O)[C@H](C(C)C)NC(=O)[C@H](C)NC(=O)CSC[C@@H](C(=O)NCC(=O)NCC(=O)NCC(=O)NCC(=O)N[C@@H](CO)C(=O)N[C@@H](CO)C(=O)N[C@@H](CS)C(N)=O)NC(=O)[C@H](Cc2ccc(O)cc2)N(C)C(=O)[C@H](Cc2ccccc2)NC(=O)[C@@H](CCCNC(=N)N)NC(=O)[C@H](CCC(=O)O)NC(=O)[C@H]([C@@H](C)CC)NC1=O` [compound 348], under setting [3], the Kd was 100 to 1000 nM.

As for `CC[C@H](C)[C@@H]1NC(=O)[C@H](Cc2ccc(OC)cc2)NC(=O)[C@H](Cc2ccc(O)cc2)NC(=O)[C@H](CC(N)=O)NC(=O)[C@H](Cc2c[nH]c3ccccc23)N(C)C(=O)[C@H](C(C)C)NC(=O)[C@H](Cc2cccc(Cl)c2)N(C)C(=O)[C@H](C(C)C)NC(=O)[C@H](C)NC(=O)CSC[C@@H](C(=O)NCC(=O)NCC(=O)NCC(=O)NCC(=O)N[C@@H](CO)C(=O)N[C@@H](CO)C(=O)N[C@@H](CS)C(N)=O)NC(=O)[C@H](Cc2ccc(O)cc2)N(C)C(=O)[C@H](Cc2ccccc2)NC(=O)[C@@H](CCCNC(=N)N)NC(=O)[C@H](CCCCCN)NC(=O)[C@H]([C@@H](C)CC)NC1=O` [compound 370], the Kd is 1 to 100 nM.

For the compound `CC[C@H](C)[C@@H]1NC(=O)[C@H](Cc2ccc(O)cc2)NC(=O)[C@H](Cc2ccc(O)cc2)NC(=O)[C@H](CC(N)=O)NC(=O)[C@H](Cc2c[nH]c3ccccc23)NC(=O)[C@H](C(C)C)NC(=O)[C@H](Cc2ccccc2)NC(=O)[C@H](C(C)C)NC(=O)[C@H](C)NC(=O)CSC[C@@H](C(N)=O)NC(=O)[C@H](Cc2ccc(O)cc2)N(C)C(=O)[C@H](Cc2ccc(O)cc2)NC(=O)[C@H](CCC(=O)O)NC(=O)[C@H](CCCNC(=N)N)NC(=O)[C@H]([C@@H](C)CC)NC1=O` [compound 257], the Kd under setting [2] was 1 to 100 nM.

On to `CC[C@H](C)[C@@H]1NC(=O)[C@H](Cc2ccc(OC)cc2)NC(=O)[C@H](Cc2ccc(O)cc2)NC(=O)[C@H](CC(N)=O)NC(=O)[C@H](Cc2c[nH]c3ccccc23)N(C)C(=O)[C@H](C(C)C)NC(=O)[C@H](Cc2cccc(Cl)c2)N(C)C(=O)[C@H](C(C)C)NC(=O)[C@H](C)NC(=O)CSC[C@@H](C(N)=O)NC(=O)[C@H](Cc2ccc(O)cc2)N(C)C(=O)[C@H](Cc2ccccc2)NC(=O)[C@@H](CCCNC(=N)N)NC(=O)[C@H](CCCCN)NC(=O)[C@H]([C@@H](C)CC)NC1=O` [compound 373], for which the Kd under setting [1] was 1 to 100 nM.

With `CC[C@H](C)[C@@H]1NC(=O)[C@H](Cc2ccc(OC)cc2)NC(=O)[C@H](Cc2ccc(O)cc2)NC(=O)[C@H](CC(N)=O)NC(=O)[C@H](Cc2c[nH]c3ccccc23)N(C)C(=O)[C@H](C(C)C)NC(=O)[C@H](Cc2cccc(Cl)c2)N(C)C(=O)[C@H](C(C)C)NC(=O)[C@H](C)NC(=O)CSC[C@@H](C(N)=O)NC(=O)[C@H](Cc2ccc(O)cc2)N(C)C(=O)[C@H](Cc2ccccc2)NC(=O)[C@H](CCCNC(=N)N)NC(=O)C(C)(CCCCN)NC(=O)[C@H]([C@@H](C)CC)NC1=O` (some centres unmarked) [compound 379], under setting [1], the equilibrium dissociation constant (Kd) is 1 to 100 nM.

Regarding `CC[C@H](C)[C@@H]1NC(=O)[C@H](Cc2ccc(OC)cc2)NC(=O)[C@H](Cc2ccc(O)cc2)NC(=O)[C@H](CC(N)=O)NC(=O)[C@H](Cc2c[nH]c3ccccc23)N(C)C(=O)[C@H](C(C)C)NC(=O)[C@H](Cc2cccc(Cl)c2)N(C)C(=O)[C@H](C(C)C)NC(=O)[C@H](C)NC(=O)CSC[C@@H](C(N)=O)NC(=O)[C@H](Cc2ccc(O)cc2)N(C)C(=O)[C@H](Cc2ccccc2)NC(=O)[C@@H](CCCNC(=N)N)NC(=O)[C@H](CCCNC(=N)N)NC(=O)[C@H](CCC(=O)NCCCC[C@@H](NC)C(=O)O)NC1=O` [compound 346] ({CH2CO}-AV[NMePhe(3-Cl)]V[NMeW]NYY(Me)IE(X1)R[dR]F[NMeY]C-NH2; thioether N-15), the Kd under setting [3] fell in the range of 1 to 100 nM.

`CC[C@H](C)[C@@H]1NC(=O)[C@H](Cc2ccc(OC)cc2)NC(=O)[C@H](Cc2ccc(O)cc2)NC(=O)[C@H](CC(N)=O)NC(=O)[C@H](Cc2c[nH]c3ccccc23)N(C)C(=O)[C@H](C(C)C)NC(=O)[C@H](Cc2cccc(C(=O)O)c2)N(C)C(=O)[C@H](C(C)C)NC(=O)[C@H](C)NC(=O)CSC[C@@H](C(N)=O)NC(=O)[C@H](Cc2ccc(O)cc2)N(C)C(=O)[C@H](Cc2ccccc2)NC(=O)[C@@H](CCCNC(=N)N)NC(=O)[C@H](CCCNC(=N)N)NC(=O)[C@H]([C@@H](C)CC)NC1=O` [compound 452]: the Kd (SPR, hTfR, class symbols A-D, read-out: KD) fell in the range of 100 to 1000 nM.

(Values after patent US20230203098A1, “HUMAN TRANSFERRIN RECEPTOR BINDING PEPTIDE” (priority 2020, published 2023).)
